Measured values reported in article PMC3071284 (Bioorganic & medicinal chemistry, 2011).

What was measured:
[1] = target: T1, T. cruzi farnesyl diphosphate synthase (TcFPPS) (Trypanosoma cruzi, UniProt Q8WS26); conditions: cited from earlier work
T1 sequence (Q8WS26 64-425 limits assumed): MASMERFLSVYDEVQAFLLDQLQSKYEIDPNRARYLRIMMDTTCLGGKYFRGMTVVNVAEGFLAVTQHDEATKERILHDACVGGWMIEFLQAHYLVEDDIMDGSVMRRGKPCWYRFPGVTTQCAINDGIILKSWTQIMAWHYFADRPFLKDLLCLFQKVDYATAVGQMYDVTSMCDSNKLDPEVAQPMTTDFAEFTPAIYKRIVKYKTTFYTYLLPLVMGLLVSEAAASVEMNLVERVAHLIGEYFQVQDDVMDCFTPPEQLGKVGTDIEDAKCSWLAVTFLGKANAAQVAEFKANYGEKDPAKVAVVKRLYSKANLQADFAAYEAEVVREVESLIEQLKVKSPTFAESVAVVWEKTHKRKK

T. gondii tachyzoites = T. gondii tachyzoites growth inhibition assay; format: cell-based, Toxoplasma gondii; conditions: result in words
[2] = cited from earlier work
T. cruzi-infected mice = conditions: cited from earlier work

CCCCCCNCC(P(=O)(O)O)P(=O)(O)O [Compound 8]
mode of inhibition of TcFPPS [1]: competitive inhibitor

CCCCCCCCCCNCC(P(=O)(O)O)P(=O)(O)O [Compound 24, 1-[(n-Dec-1-ylamino)ethyl] 1,1-bisphosphonic Acid]
antiparasitic activity against T. gondii cells (T. gondii tachyzoites): practically devoid of antiparasitic activity

CN(C)c1ccc(C(=C2C=CC(=[N+](C)C)C=C2)c2ccc(N(C)C)cc2)cc1 [Crystal violet]
carcinogenicity in in vivo assays [2]: carcinogenic

O=P(O)(O)C(O)(Cc1cccnc1)P(=O)(O)O [risedronate]
survival of T. cruzi-infected mice (T. cruzi-infected mice): significantly increase survival
